According to patent publication US8163771B2, “11 β-HSD1 modulators” (Exelixis, Inc., priority 2008, dated 2012):

Target: T1, recombinant human 11 β-HSD1 (Homo sapiens, UniProt P28845)
T1 construct: made in house; host or cells: E. coli
Test: 11 β-HSD1 SPA Assay (Scintillation Proximity Assay)
Type: biochemical
In short: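 Scintillation proximity read-out of cortisol formed from 40 nM [3H]cortisone by purified recombinant human enzyme (30-100 nM, E. coli) with 1 mM NADPH, pH7.4, 2 hours at room temperature; beads with cortisol antibody and glycyrrhetinic acid stop the reaction, read next day. IC50 derived from inhibition normalised to background and maximal wells.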

T1 sequence (P28845 whole entry): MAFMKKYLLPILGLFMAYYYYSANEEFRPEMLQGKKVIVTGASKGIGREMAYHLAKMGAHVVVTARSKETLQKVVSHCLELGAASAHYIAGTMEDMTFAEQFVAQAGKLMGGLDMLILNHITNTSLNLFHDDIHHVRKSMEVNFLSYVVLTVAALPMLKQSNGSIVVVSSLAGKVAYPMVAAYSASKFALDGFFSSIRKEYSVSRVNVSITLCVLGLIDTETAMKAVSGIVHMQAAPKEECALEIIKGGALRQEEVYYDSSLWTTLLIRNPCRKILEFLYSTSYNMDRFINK

**Q.** For C[C@H](NC(=O)c1ccc(N2C3CCC2CC(NC(=O)C(C)(C)Oc2ccc(Cl)cc2S(C)(=O)=O)C3)nc1)C(F)(F)F (stereo partly drawn) [Example 432, 6-[3-endo-({2-[4-chloro-2-(methylsulfonyl)phenoxy]-2-methylpropanoyl}amino)-8-azabicyclo[3.2.1]oct-8-yl]-N-[(2S)-1,1,1-trifluoropropan-2-yl]pyridine-3-carboxamide], which IC50 is on record?
**A.** < 2000 nM

**Q.** CC(C)(Oc1ccc(Cl)cc1C(F)F)C(=O)N[C@H]1C[C@H]2CC[C@@H](C1)N2c1ccc(C(=O)NCC(F)F)cn1 [Example 433, 6-[3-endo-({2-[4-chloro-2-(difluoromethyl)phenoxy]-2-methylpropanoyl}amino)-8-azabicyclo[3.2.1]oct-8-yl]-N-(2,2-difluoroethyl)pyridine-3-carboxamide] was tested. Which IC50 did it give?
**A.** < 200 nM

**Q.** How did the IC50 turn out when C[C@H](NC(=O)c1ccc(N2C3CCC2CC(NC(=O)C(C)(C)Oc2ccc(F)cc2Cl)C3)nc1)C(F)(F)F (stereo partly drawn) [Example 434, 6-(3-endo-{[2-(2-chloro-4-fluorophenoxy)-2-methylpropanoyl]amino}-8-azabicyclo[3.2.1]oct-8-yl)-N-[(2S)-1,1,1-trifluoropropan-2-yl]pyridine-3-carboxamide] was run?
**A.** < 200 nM

**Q.** How did the IC50 turn out when C[C@H](NC(=O)c1ccc(N2C3CCC2CC(NC(=O)C(C)(C)Oc2ccc(Cl)cc2F)C3)nc1)C(F)(F)F (stereo partly drawn) [Example 435, 6-(3-endo-{[2-(4-chloro-2-fluorophenoxy)-2-methylpropanoyl]amino}-8-azabicyclo[3.2.1]oct-8-yl)-N-[(2S)-1,1,1-trifluoropropan-2-yl]pyridine-3-carboxamide] was run?
**A.** < 200 nM

**Q.** For CC(C)(Oc1cc(F)c(Cl)cc1Cl)C(=O)N[C@H]1C[C@H]2CC[C@@H](C1)N2c1ccc(C(=O)NCC(F)F)cn1 [Example 436, 6-(3-endo-{[2-(2,4-dichloro-5-fluorophenoxy)-2-methylpropanoyl]amino}-8-azabicyclo[3.2.1]oct-8-yl)-N-(2,2-difluoroethyl)pyridine-3-carboxamide], which IC50 is on record?
**A.** < 200 nM

**Q.** How did the IC50 turn out when C[C@H](NC(=O)c1ccc(N2C3CCC2CC(NC(=O)C(C)(C)Oc2ccc(F)c(Cl)c2Cl)C3)nc1)C(F)(F)F (stereo partly drawn) [Example 437, 6-(3-endo-{[2-(2,3-dichloro-4-fluorophenoxy)-2-methylpropanoyl]amino}-8-azabicyclo[3.2.1]oct-8-yl)-N-[(2S)-1,1,1-trifluoropropan-2-yl]pyridine-3-carboxamide] was run?
**A.** < 200 nM

**Q.** For CC(C)(O)CNC(=O)c1ccc(N2[C@@H]3CC[C@H]2C[C@@H](NC(=O)C(C)(C)Oc2ccc(Cl)cc2OC(F)(F)F)C3)nc1 [Example 438, 6-[3-endo-({2-[4-chloro-2-(trifluoromethoxy)phenoxy]-2-methylpropanoyl}amino)-8-azabicyclo[3.2.1]oct-8-yl]-N-(2-hydroxy-2-methylpropyl)pyridine-3-carboxamide], which IC50 is on record?
**A.** < 200 nM

**Q.** For C[C@H](NC(=O)c1ccc(N2C3CCC2CC(NC(=O)C(C)(C)Oc2ncc(F)cc2C(F)F)C3)nc1)C(F)(F)F (stereo partly drawn) [Example 439, 6-{3-endo-[(2-{[3-(difluoromethyl)-5-fluoropyridin-2-yl]oxy}-2-methylpropanoyl)amino]-8-azabicyclo[3.2.1]oct-8-yl}-N-[(2S)-1,1,1-trifluoropropan-2-yl]pyridine-3-carboxamide], which IC50 is on record?
**A.** < 2000 nM

**Q.** Which IC50 does the source give for CC(C)(Oc1ncc(F)cc1C(F)F)C(=O)N[C@H]1C[C@H]2CC[C@@H](C1)N2c1ccc(C(=O)NCC(F)F)cn1 [Example 440, N-(2,2-difluoroethyl)-6-{3-endo-[(2-{[3-(difluoromethyl)-5-fluoropyridin-2-yl]oxy}-2-methylpropanoyl)amino]-8-azabicyclo[3.2.1]oct-8-yl}pyridine-3-carboxamide] here?
**A.** < 200 nM

**Q.** Which IC50 does the source give for CC(C)(Oc1ccc(F)c(Cl)c1Cl)C(=O)N[C@H]1C[C@H]2CC[C@@H](C1)N2c1ccc(C(=O)NCC(F)F)cn1 [Example 441, 6-(3-endo-{[2-(2,3-dichloro-4-fluorophenoxy)-2-methylpropanoyl]amino}-8-azabicyclo[3.2.1]oct-8-yl)-N-(2,2-difluoroethyl)pyridine-3-carboxamide] here?
**A.** < 200 nM
